Reference: patent publication US8415351B2 (priority 2007, dated 2013)

What was measured:
[1] = target: T1, HCV polymerase 1A (Δ21 NS5B, H77) (Hepatitis C virus genotype 1a, UniProt P27958); assay: biochemical; settings: IC50 1a
T1 construct: 20 to 50 nM Δ21 NS5B
Outline: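 Radiometric assay with Δ21 NS5B (H77): 20 μM CTP, 20 μM ATP, 1 μM ^3H-UTP, 5 nM template RNA, 2–4 h at room temperature. RNA precipitated with spermine, filter-captured and counted. IC50 from non-linear fit of retained cpm vs inhibitor concentration (tight-binding equation).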

[2] = target: T2, HCV polymerase 1B (Δ21 NS5B, BK) (Hepatitis C virus genotype 1b, UniProt P26663); assay: biochemical
T2 construct: 20 to 50 nM Δ21 NS5B
T2 sequence (P26663 2420-2989, stated change not applied): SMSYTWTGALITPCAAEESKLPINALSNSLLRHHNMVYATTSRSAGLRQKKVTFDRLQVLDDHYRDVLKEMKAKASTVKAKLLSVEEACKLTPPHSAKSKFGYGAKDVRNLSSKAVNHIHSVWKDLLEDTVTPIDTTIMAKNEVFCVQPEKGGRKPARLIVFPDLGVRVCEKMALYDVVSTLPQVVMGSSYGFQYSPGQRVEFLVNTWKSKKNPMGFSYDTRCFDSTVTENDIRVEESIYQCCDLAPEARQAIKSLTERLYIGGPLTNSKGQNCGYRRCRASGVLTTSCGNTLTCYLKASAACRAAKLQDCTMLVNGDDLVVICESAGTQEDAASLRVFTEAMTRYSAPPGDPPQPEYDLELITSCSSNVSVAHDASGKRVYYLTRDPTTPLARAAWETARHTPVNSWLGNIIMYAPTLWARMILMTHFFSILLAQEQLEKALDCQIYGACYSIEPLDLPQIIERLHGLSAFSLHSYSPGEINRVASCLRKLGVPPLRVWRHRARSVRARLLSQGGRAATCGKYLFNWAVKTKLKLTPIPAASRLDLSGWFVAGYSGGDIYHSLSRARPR
Outline: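 Δ21 NS5B (genotype 1b, BK […]) preincubated 15 min RT with inhibitor, 2 mM MnCl2, pH 7.4, 60–125 μM GTP; started with 20 μM CTP/ATP, 1 μM 3H-UTP, 5 nM template RNA, run 2–4 h RT. Spermine-precipitated RNA filter-captured, scintillation counted; IC50 from tight-binding (Morrison) fit.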

[3] = tested on: genotype 1a-H77 subgenomic replicon cell line; assay: microbe, parasite or virus in culture; assay type: cell-based, HCV; settings: Hepatitis C virus, read-out: EC50 1a
[4] = tested on: genotype 1b-Con1 subgenomic replicon cell line; assay: microbe, parasite or virus in culture; assay type: cell-based, HCV; settings: Hepatitis C virus, read-out: EC50 1b

T1 sequence (P27958 2421-2990, stated change not applied): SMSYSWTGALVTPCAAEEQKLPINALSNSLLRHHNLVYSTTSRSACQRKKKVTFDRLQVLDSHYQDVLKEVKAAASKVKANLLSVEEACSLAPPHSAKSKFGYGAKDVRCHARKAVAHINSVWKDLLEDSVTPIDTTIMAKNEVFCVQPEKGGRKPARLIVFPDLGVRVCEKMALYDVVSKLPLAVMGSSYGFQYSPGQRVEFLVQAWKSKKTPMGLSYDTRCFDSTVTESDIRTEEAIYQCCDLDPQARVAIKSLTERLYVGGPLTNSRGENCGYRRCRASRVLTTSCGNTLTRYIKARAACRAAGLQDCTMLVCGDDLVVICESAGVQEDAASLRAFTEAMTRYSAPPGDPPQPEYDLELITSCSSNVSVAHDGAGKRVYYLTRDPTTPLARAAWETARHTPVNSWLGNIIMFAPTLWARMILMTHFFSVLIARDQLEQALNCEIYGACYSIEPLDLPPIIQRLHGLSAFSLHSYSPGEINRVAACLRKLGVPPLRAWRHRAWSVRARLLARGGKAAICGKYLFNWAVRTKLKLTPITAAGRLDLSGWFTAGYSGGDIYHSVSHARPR

For `COc1c(-c2cccc(/C(C)=N/NS(C)(=O)=O)c2)cc(-n2ccc(=O)[nH]c2=O)cc1C(C)(C)C` [IB-L0-1.9, (E)-N′-(1-(3′-tert-butyl-5′-(2,4-dioxo-3,4-dihydropyrimidin-1(2H)-yl)-2′-methoxybiphenyl-3-yl)ethylidene)methanesulfonohydrazide], the IC50 [1] was 100 to 1000 nM, the IC50 [2] was 100 to 1000 nM and the EC50 [3] was over 1000 nM. The EC50 [4] was over 1000 nM.
Work on `COc1c(-c2cccc(/C=N/NS(C)(=O)=O)c2)cc(-n2ccc(=O)[nH]c2=O)cc1C(C)(C)C` [IB-L0-1.10, (E)-N′-((3′-tert-butyl-5′-(2,4-dioxo-3,4-dihydropyrimidin-1(2H)-yl)-2′-methoxybiphenyl-3-yl)methylene)methanesulfonohydrazide] yielded an IC50 [1] of 100 to 1000 nM, an IC50 [2] of 100 to 1000 nM and an EC50 [3] of over 1000 nM. It also gave an EC50 [4] of over 1000 nM.
Compound `CC(C)(C)c1cc(-c2ccc3c(c2)CC/C3=N\NS(C)(=O)=O)cc(-n2ccc(=O)[nH]c2=O)c1` [IB-L0-2.7, (E)-N′-(5-(3-tert-butyl-5-(2,4-dioxo-3,4-dihydropyrimidin-1(2H)-yl)phenyl)-2,3-dihydro-1H-inden-1-ylidene)methanesulfonohydrazide] has an IC50 [1] of 10 to 100 nM, an IC50 [2] of 10 to 100 nM and an EC50 [3] of 100 to 1000 nM. The EC50 [4] was 10 to 100 nM.
`COc1c(-c2ccc3c(CNS(C)(=O)=O)csc3c2)cc(-n2ccc(=O)[nH]c2=O)cc1C(C)(C)C` [IB-L0-2.11, N-((6-(3-tert-butyl-5-(2,4-dioxo-3,4-dihydropyrimidin-1(2H)-yl)-2-methoxyphenyl)benzo[b]thiophen-3-yl)methyl)methanesulfonamide] gave an IC50 [1] of under 10 nM, an IC50 [2] of under 10 nM and an EC50 [3] of 10 to 100 nM. For the same compound, the EC50 [4] was under 10 nM.
With `COc1c(-c2ccc3c(c2)CCC3(F)CNS(C)(=O)=O)cc(-n2ccc(=O)[nH]c2=O)cc1C(C)(C)C` (stereo not shown) [IB-L0-2.12, N-((5-(3-tert-butyl-5-(2,4-dioxo-3,4-dihydropyrimidin-1(2H)-yl)-2-methoxyphenyl)-1-fluoro-2,3-dihydro-1H-inden-1-yl)methyl)methanesulfonamide] the IC50 [1] was under 10 nM, the IC50 [2] was 10 to 100 nM and the EC50 [3] was 10 to 100 nM. It also gave an EC50 [4] of under 10 nM.
`COc1c(-c2ccc3c(c2)CC=C3CNS(C)(=O)=O)cc(-n2ccc(=O)[nH]c2=O)cc1C(C)(C)C` [IB-L0-2.13, N-((6-(3-tert-butyl-5-(2,4-dioxo-3,4-dihydropyrimidin-1(2H)-yl)-2-methoxyphenyl)-1H-inden-3-yl)methyl)methanesulfonamide] was tested, and the IC50 [1] was under 10 nM, the IC50 [2] was 10 to 100 nM and the EC50 [3] was 10 to 100 nM. The EC50 [4] was under 10 nM.
Work on `COc1c(-c2ccc3c(c2)CCC3CNS(C)(=O)=O)cc(-n2ccc(=O)[nH]c2=O)cc1C(C)(C)C` (stereo not shown) [IB-L0-2.17, N-((5-(3-tert-butyl-5-(2,4-dioxo-3,4-dihydropyrimidin-1(2H)-yl)-2-methoxyphenyl)-2,3-dihydro-1H-inden-1-yl)methyl)methanesulfonamide] yielded an IC50 [1] of under 10 nM, an IC50 [2] of 10 to 100 nM and an EC50 [3] of 10 to 100 nM. The EC50 [4] was under 10 nM.
In the case of `COc1c(-c2ccc3c(CNS(C)(=O)=O)coc3c2)cc(-n2ccc(=O)[nH]c2=O)cc1C(C)(C)C` [IB-L0-2.18, N-((6-(3-tert-butyl-5-(2,4-dioxo-3,4-dihydropyrimidin-1(2H)-yl)-2-methoxyphenyl)benzofuran-3-yl)methyl)methanesulfonamide], the IC50 [1] is reported as under 10 nM, the IC50 [2] is reported as 10 to 100 nM and the EC50 [3] is reported as 100 to 1000 nM. It also gave an EC50 [4] of 10 to 100 nM.
Work on `COc1c(-c2ccc3c(CN(C)S(C)(=O)=O)csc3c2)cc(-n2ccc(=O)[nH]c2=O)cc1C(C)(C)C` [IB-L0-2.21, N-((6-(3-tert-butyl-5-(2,4-dioxo-3,4-dihydropyrimidin-1(2H)-yl)-2-methoxyphenyl)benzo[b]thiophen-3-yl)methyl)-N-methylmethanesulfonamide] yielded an IC50 [1] of 10 to 100 nM, an IC50 [2] of 10 to 100 nM and an EC50 [3] of 100 to 1000 nM. The EC50 [4] was 10 to 100 nM.
With `COC(=O)NN=C1CCc2cc(-c3cc(-n4ccc(=O)[nH]c4=O)cc(C(C)(C)C)c3OC)ccc21` [IB-L0-2.24, methyl 2-(5-(3-tert-butyl-5-(2,4-dioxo-3,4-dihydropyrimidin-1(2H)-yl)-2-methoxyphenyl)-2,3-dihydro-1H-inden-1-ylidene)hydrazinecarboxylate] the IC50 [1] was 10 to 100 nM, the IC50 [2] was 10 to 100 nM and the EC50 [3] was 10 to 100 nM. It also gave an EC50 [4] of 10 to 100 nM.
For `COc1c(-c2ccc3c(c2)CCC3(C)CNS(C)(=O)=O)cc(-n2ccc(=O)[nH]c2=O)cc1C(C)(C)C` (stereo not shown) [IB-L0-2.25, N-((5-(3-tert-butyl-5-(2,4-dioxo-3,4-dihydropyrimidin-1(2H)-yl)-2-methoxyphenyl)-1-methyl-2,3-dihydro-1H-inden-1-yl)methyl)methanesulfonamide], the IC50 [1] was 10 to 100 nM, the IC50 [2] was 10 to 100 nM and the EC50 [3] was 100 to 1000 nM. The EC50 [4] was 10 to 100 nM.
With `COc1c(-c2ccc3c(c2)CCC3C(C)(C)NS(C)(=O)=O)cc(-n2ccc(=O)[nH]c2=O)cc1C(C)(C)C` (stereo not shown) [IB-L0-2.29, N-(2-(5-(3-tert-butyl-5-(2,4-dioxo-3,4-dihydropyrimidin-1(2H)-yl)-2-methoxyphenyl)-2,3-dihydro-1H-inden-1-yl)propan-2-yl)methanesulfonamide] the IC50 [1] was 10 to 100 nM, the IC50 [2] was 10 to 100 nM and the EC50 [3] was 100 to 1000 nM. It also gave an EC50 [4] of 10 to 100 nM.
For `COc1c(-c2ccc3c(c2)CCC3NNS(C)(=O)=O)cc(-n2ccc(=O)[nH]c2=O)cc1C(C)(C)C` (stereo not shown) [IB-L0-2.31, N′-(5-(3-tert-butyl-5-(2,4-dioxo-3,4-dihydropyrimidin-1(2H)-yl)-2-methoxyphenyl)-2,3-dihydro-1H-inden-1-yl)methanesulfonohydrazide], the IC50 [1] was 10 to 100 nM, the IC50 [2] was 10 to 100 nM and the EC50 [3] was 100 to 1000 nM. The EC50 [4] was 10 to 100 nM.
`COc1c(-c2ccc3c(c2)CCC3C(=O)NS(C)(=O)=O)cc(-n2ccc(=O)[nH]c2=O)cc1C(C)(C)C` (stereo not shown) [IB-L0-2.34, 5-(3-tert-butyl-5-(2,4-dioxo-3,4-dihydropyrimidin-1(2H)-yl)-2-methoxyphenyl)-N-(methylsulfonyl)-2,3-dihydro-1H-indene-1-carboxamide] was tested, and the IC50 [1] was 10 to 100 nM, the IC50 [2] was 10 to 100 nM and the EC50 [3] was over 1000 nM. The EC50 [4] was 100 to 1000 nM.
With `CC(C)(C)c1cc(-n2ccc(=O)[nH]c2=O)cc(-c2ccc3c(CNS(C)(=O)=O)csc3c2)c1Cl` [IB-L0-2.35, N-((6-(3-tert-butyl-2-chloro-5-(2,4-dioxo-3,4-dihydropyrimidin-1(2H)-yl)phenyl)benzo[b]thiophen-3-yl)methyl)methanesulfonamide] the IC50 [1] was 10 to 100 nM, the IC50 [2] was 10 to 100 nM and the EC50 [3] was over 1000 nM. For the same compound, the EC50 [4] was 100 to 1000 nM.
Work on `COc1c(-c2ccc3c(c2)CCC3O)cc(-n2ccc(=O)[nH]c2=O)cc1C(C)(C)C` (stereo not shown) [IB-L0-2.36, 1-(3-tert-butyl-5-(1-hydroxy-2,3-dihydro-1H-inden-5-yl)-4-methoxyphenyl)pyrimidine-2,4(1H,3H)-dione] yielded an IC50 [1] of 10 to 100 nM, an IC50 [2] of 100 to 1000 nM and an EC50 [3] of 100 to 1000 nM. For the same compound, the EC50 [4] was 10 to 100 nM.
Compound `COc1c(-c2ccc3cc(CNS(C)(=O)=O)sc3c2)cc(-n2ccc(=O)[nH]c2=O)cc1C(C)(C)C` [IB-L0-2.40, N-((6-(3-tert-butyl-5-(2,4-dioxo-3,4-dihydropyrimidin-1(2H)-yl)-2-methoxyphenyl)benzo[b]thiophen-2-yl)methyl)methanesulfonamide] has an IC50 [1] of 100 to 1000 nM, an IC50 [2] of 100 to 1000 nM and an EC50 [3] of over 1000 nM. For the same compound, the EC50 [4] was 100 to 1000 nM.
`COc1c(-c2ccc3c(c2)CCC3NS(C)(=O)=O)cc(-n2ccc(=O)[nH]c2=O)cc1C(C)(C)C` (stereo not shown) [IB-L0-2.44, N-(5-(3-tert-butyl-5-(2,4-dioxo-3,4-dihydropyrimidin-1(2H)-yl)-2-methoxyphenyl)-2,3-dihydro-1H-inden-1-yl)methanesulfonamide] showed an IC50 [1] of 100 to 1000 nM, an IC50 [2] of 100 to 1000 nM and an EC50 [3] of over 1000 nM. For the same compound, the EC50 [4] was over 1000 nM.
Work on `COc1c(-c2ccc3c(c2)CCC3=O)cc(-n2ccc(=O)[nH]c2=O)cc1C(C)(C)C` [IB-L0-2.50, 1-(3-tert-butyl-4-methoxy-5-(1-oxo-2,3-dihydro-1H-inden-5-yl)phenyl)pyrimidine-2,4(1H,3H)-dione] yielded an IC50 [1] of 10 to 100 nM, an IC50 [2] of 10 to 100 nM and an EC50 [3] of 100 to 1000 nM. For the same compound, the EC50 [4] was 100 to 1000 nM.
`COc1c(-c2ccsc2)cc(-n2ccc(=O)[nH]c2=O)cc1-c1ccc2c(c1)CC=C2CNS(C)(=O)=O` [IB-L0-2.62, N-((6-(5-(2,4-dioxo-3,4-dihydropyrimidin-1(2H)-yl)-2-methoxy-3-(thiophen-3-yl)phenyl)-1H-inden-3-yl)methyl)methanesulfonamide] gave an IC50 [1] of 10 to 100 nM, an IC50 [2] of 10 to 100 nM and an EC50 [3] of 100 to 1000 nM. It also gave an EC50 [4] of 10 to 100 nM.
`COc1c(-c2ccc3c(c2)CC=C3CNS(C)(=O)=O)cc(-n2ccc(=O)[nH]c2=O)cc1-c1cccs1` [IB-L0-2.63, N-((6-(5-(2,4-dioxo-3,4-dihydropyrimidin-1(2H)-yl)-2-methoxy-3-(thiophen-2-yl)phenyl)-1H-inden-3-yl)methyl)methanesulfonamide] gave an IC50 [1] of 10 to 100 nM, an IC50 [2] of 10 to 100 nM and an EC50 [3] of 100 to 1000 nM. It also gave an EC50 [4] of 10 to 100 nM.
For `COc1c(-c2ccc3c(c2)CC=C3CNS(C)(=O)=O)cc(-n2ccc(=O)[nH]c2=O)cc1-c1ccco1` [IB-L0-2.65, N-((6-(5-(2,4-dioxo-3,4-dihydropyrimidin-1(2H)-yl)-3-(furan-2-yl)-2-methoxyphenyl)-1H-inden-3-yl)methyl)methanesulfonamide], the IC50 [1] was 10 to 100 nM, the IC50 [2] was under 10 nM and the EC50 [3] was 100 to 1000 nM. It also gave an EC50 [4] of 10 to 100 nM.
